Earlier results in article PMC10444862, “Using macromolecular electron densities to improve the enrichment of active compounds in virtual screening” (Communications Chemistry, 2023).

System: AMPC
Settings: activities reported in the DUD-E dataset; cited from earlier work

SMILES	label
O=C(O)c1sccc1S(=O)(=O)Nc1ccccc1N1CCCCC1 [104_58, O=C([O-])c1sccc1S(=O)(=O)Nc1ccccc1N1CCCCC1]	active
Nc1onc(-c2ccc(Cl)cc2)c1C(=O)O [317_12, Nc1onc(-c2ccc(Cl)cc2)c1C(=O)[O-]]	active
CSCC[C@@H](C(=O)O)N1C(=O)c2ccc(C(=O)O)cc2C1=O [212_4, CSCC[C@@H](C(=O)[O-])N1C(=O)c2ccc(C(=O)[O-])cc2C1=O]	active
Cc1nc2ccc(P(=O)(O)O)cc2s1 [319_2, Cc1nc2ccc([P@](=O)([O-])O)cc2s1]	active
O=C(O)c1ccccc1S(=O)(=O)Nc1ccc(Cl)cc1 [109_49, O=C([O-])c1ccccc1S(=O)(=O)Nc1ccc(Cl)cc1]	active
